The record followed here is PMC5435539 (Journal of applied toxicology : JAT, 2017).

Like-named read-outs stand apart in the source and are kept apart here. A value given as a limit tells only on which side of the number the result lay.

In one data set the target is human CYP2C19 (Homo sapiens, UniProt P33261). In words: Fluorometric CYP inhibition assay. It counts as biochemical. The conditions noted are these: read-out: IC50 CYP2C19 activity; recombinant human CYP2C19, CEC 25 μM.
Data set [1] concerns MCF-10A breast epithelial cells. Put plainly: Reactive oxygen species. It counts as cell-based, human. To be noted: 2 h, MCF-10A cells.
Data set [2] deals with MCF-7 breast cancer cells. Put plainly: Alamar Blue cell viability assay, 72 h. It counts as cell-based. To be noted: read-out: IC50 MCF-7 cell viability, 72 h.
Data set [3] concerns MCF-10A breast epithelial cells. Put plainly: Cell viability assay. It counts as cell-based, human. To be noted: for IC50 MCF-10A: 24 h exposure, 1 nM-100 μM, MTS or Alamar Blue, mean ±SEM; for IC50: Homo sapiens, MCF-10A, 24 h, read-out: IC50 MCF-10A.
In data set [4] the test system is HT29 colon carcinoma cells. In words: Cell viability assay. It counts as cell-based. The conditions noted are these: for IC50 HT29: 24 h exposure, 1 nM-100 μM, MTS or Alamar Blue, mean ±SEM; for IC50: Homo sapiens, HT-29, 24 h, read-out: IC50 HT29. For orientation: Alamar Blue is a resazurin reagent that responds to reducing activity.
In data set [5] the test system is CCD18 Co normal colon cells. Put plainly: Cell viability assay. It counts as cell-based. The conditions noted are these: for IC50 CCD18 Co: 24 h exposure, 1 nM-100 μM, MTS or Alamar Blue, mean ±SEM.
The test system of the next data set is CYP1A2 mRNA. In words: Real-time quantitative RT-PCR, B[a]P-induced gene expression in MCF-7 cells. To be noted: Gg 10-100 nM with B[a]P, 24 h. It counts as cell-based.
The test system of data set [6] is MCF-7 cells. Put plainly: Annexin V-7AAD apoptosis assay. The conditions noted are these: 1 μM, 24 h, AnnexinV-7AAD. It counts as cell-based.
The test system of a further data set is CYP1A1 mRNA. Put plainly: Real-time quantitative RT-PCR, B[a]P-induced gene expression in MCF-7 cells. To be noted: Gg 10-100 nM with B[a]P, 24 h. It counts as cell-based.
Another data set concerns the target T1, human CYP1A1 (Homo sapiens, UniProt P04798).
T1 sequence (P04798 1-512): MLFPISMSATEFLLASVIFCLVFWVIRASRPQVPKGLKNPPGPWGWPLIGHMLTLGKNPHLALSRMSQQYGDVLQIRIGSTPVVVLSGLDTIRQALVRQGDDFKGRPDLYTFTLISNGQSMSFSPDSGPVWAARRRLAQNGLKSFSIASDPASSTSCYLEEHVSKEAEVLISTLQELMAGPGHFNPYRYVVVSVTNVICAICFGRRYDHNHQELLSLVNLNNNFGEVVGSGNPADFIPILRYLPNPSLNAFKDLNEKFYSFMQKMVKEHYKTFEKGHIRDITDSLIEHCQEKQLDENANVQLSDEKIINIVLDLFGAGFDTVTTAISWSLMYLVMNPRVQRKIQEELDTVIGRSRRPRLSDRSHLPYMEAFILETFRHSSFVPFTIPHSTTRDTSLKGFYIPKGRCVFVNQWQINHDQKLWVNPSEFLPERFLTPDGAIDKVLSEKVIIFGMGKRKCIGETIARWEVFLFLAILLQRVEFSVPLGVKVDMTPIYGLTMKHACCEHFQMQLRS
Put plainly: Fluorometric CYP inhibition assay. It counts as biochemical.

Data set [7] concerns MCF-7 cells. In words: Alamar Blue cell viability assay, 24 h. It counts as cell-based. To be noted: read-out: IC50 MCF-7 (Alamar Blue), 24 h treatment.
In data set [8] the test system is CYP1A1 protein expression. In words: B[a]P-induced CYP1A1 protein expression. It counts as cell-based. To be noted: data not shown.
A further data set concerns the target human CYP3A4 (Homo sapiens, UniProt P08684). In words: Fluorometric CYP inhibition assay. It counts as biochemical. The conditions noted are these: read-out: IC50 CYP3A4 activity; recombinant human CYP3A4, BFC 50 μM.
The target in the next data set is T2, human CYP1B1 (Homo sapiens, UniProt Q16678).
T2 sequence (Q16678 1-543): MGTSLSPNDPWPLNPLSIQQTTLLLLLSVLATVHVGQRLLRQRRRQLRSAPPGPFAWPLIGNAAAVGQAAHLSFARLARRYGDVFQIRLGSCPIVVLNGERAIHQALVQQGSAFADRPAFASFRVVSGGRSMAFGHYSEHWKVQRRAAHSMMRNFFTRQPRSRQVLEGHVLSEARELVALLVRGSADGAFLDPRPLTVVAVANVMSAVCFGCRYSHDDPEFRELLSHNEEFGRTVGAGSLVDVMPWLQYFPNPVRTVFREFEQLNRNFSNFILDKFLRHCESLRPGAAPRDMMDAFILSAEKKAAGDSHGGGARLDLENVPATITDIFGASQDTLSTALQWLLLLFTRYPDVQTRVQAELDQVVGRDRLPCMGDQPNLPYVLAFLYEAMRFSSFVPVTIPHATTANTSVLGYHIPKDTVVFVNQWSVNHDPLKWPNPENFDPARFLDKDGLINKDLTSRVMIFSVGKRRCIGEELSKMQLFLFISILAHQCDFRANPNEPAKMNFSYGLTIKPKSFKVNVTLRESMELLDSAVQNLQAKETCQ
Put plainly: Fluorometric CYP inhibition assay. It counts as biochemical. The conditions noted are these: recombinant human CYP1B1.

The subject of the next data set is CYP1 enzymes mRNA. Put plainly: Endogenous CYP1 mRNA expression in breast cancer cells. The conditions noted are these: Gg alone, data not shown. It counts as cell-based.

Sequence of human CYP2C19 (P33261 whole entry): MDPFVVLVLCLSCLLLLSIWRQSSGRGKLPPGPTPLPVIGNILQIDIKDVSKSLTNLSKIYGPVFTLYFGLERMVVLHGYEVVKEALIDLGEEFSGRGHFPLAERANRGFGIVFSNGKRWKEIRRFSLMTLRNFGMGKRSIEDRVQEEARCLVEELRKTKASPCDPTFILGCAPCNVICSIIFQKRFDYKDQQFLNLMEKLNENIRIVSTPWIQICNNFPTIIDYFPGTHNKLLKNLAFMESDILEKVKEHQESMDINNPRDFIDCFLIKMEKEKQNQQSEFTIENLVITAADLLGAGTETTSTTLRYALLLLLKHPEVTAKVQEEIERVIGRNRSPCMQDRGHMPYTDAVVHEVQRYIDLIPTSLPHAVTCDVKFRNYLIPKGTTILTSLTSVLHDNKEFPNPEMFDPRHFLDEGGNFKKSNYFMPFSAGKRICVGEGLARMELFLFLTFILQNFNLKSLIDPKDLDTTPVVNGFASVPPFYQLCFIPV
Sequence of human CYP3A4 (P08684 whole entry): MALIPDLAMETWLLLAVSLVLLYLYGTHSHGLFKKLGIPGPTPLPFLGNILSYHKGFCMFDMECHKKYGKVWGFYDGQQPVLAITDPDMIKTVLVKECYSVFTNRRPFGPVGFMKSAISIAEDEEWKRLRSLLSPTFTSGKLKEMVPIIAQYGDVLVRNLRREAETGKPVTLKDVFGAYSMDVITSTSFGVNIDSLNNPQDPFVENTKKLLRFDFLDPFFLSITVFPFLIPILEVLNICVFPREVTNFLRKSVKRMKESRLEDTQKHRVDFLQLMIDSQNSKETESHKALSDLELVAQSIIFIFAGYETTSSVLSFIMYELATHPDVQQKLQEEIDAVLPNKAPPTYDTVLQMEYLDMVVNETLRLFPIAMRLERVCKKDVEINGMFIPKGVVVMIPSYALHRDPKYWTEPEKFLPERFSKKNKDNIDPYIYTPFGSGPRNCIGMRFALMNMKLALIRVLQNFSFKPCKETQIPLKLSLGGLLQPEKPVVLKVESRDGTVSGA

For orientation: IC50 means the concentration that gives 50% inhibition. With `CCC1(c2ccccc2)C(=O)NC(=O)N(Cc2ccccc2)C1=O` (single isomer, unassigned; (-)) [NBPB, (−)-N-3-benzyl-phenobarbital, reference compound], the IC50 at human CYP2C19 is 0.3 ± 0.01 µM.
As for `O=C1C=Cc2ccc3c4c(ccc1c24)-c1ccccc1C3=O` [1,6-BPQ, benzo[a]pyrene-1,6-quinone, reference compound], the “increase in ROS levels” value in data set [1] (1,6-BPQ 2 μM) amounted to 2 fold.
Take `CC/C(=C(\c1ccc(O)cc1)c1ccc(OCCN(C)C)cc1)c1ccccc1` [4OH-Tam, 4-hydroxy-tamoxifen]: the IC50 in data set [2] (Homo sapiens, MCF7, 72 h) was found to be 2.6 µM.
Turning to `O=c1[nH]cc(F)c(=O)[nH]1` [5-Fluorouracil, reference compound], the “IC50 MCF-10A” value in [3] is on record as “NI (No inhibition (<10% inhibition at 60 μM))”. Besides, in data set [2] (Homo sapiens, MCF7, 72 h), the IC50 is above 10 µM.
For the compound `CC1=CC(=O)[C@@H](O)[C@]2(C)[C@H]3[C@]4(O)OC[C@]35[C@H]([C@@H](C)[C@H]4O)[C@@H](O)C(=O)O[C@@H]5C[C@@H]12` [(−)-Glaucarubolone, (−)-glaucarubolone], the “IC50 MCF-10A” value in data set [3] is on record as “NI (No inhibition (<10% inhibition at 60 μM))”. Moreover, in data set [4], the “IC50 HT29” value was “NI (No inhibition (<10% inhibition at 60 μM))”. The “IC50 CCD18 Co” value in [5] is reported as “NI (No inhibition (<10% inhibition at 60 μM))”.
Turning to `CC(=O)O[C@H]1C(=O)O[C@@H]2C[C@H]3C(C)=CC(=O)[C@@H](O)[C@]3(C)[C@H]3[C@]4(O)OC[C@]32[C@@H]1[C@@H](C)[C@H]4O` [(−)-Holacanthone, (−)-holacanthone], the IC50 is 0.3 µM in data set [3]; 9.91 ± 0.52 µM in [4]; below 5 µM in data set [5] (Homo sapiens, CCD-18Co, 24 h, read-out: IC50 CCD18 Co).
Consider `COc1cccc2c1C(=O)c1c(O)c3c(c(O)c1C2=O)C[C@@](O)(C(=O)CO)C[C@@H]3O[C@H]1C[C@H](N)[C@H](O)[C@H](C)O1` [Doxorubicin, reference compound], for which the IC50 in data set [3] amounted to 30.2 ± 1.29 µM; in data set [2] (Homo sapiens, MCF7, 72 h), 0.1 µM.
Regarding `COc1cc2ccc(=O)oc2cc1O` [Scopoletin, scopoletin], in data set [3], the “IC50 MCF-10A” value was “NI (No inhibition (<10% inhibition at 60 μM))”. Moreover, the IC50 in data set [4] is 19.3 ± 0.348 µM. The “IC50 CCD18 Co” value in data set [5] is reported as “NI (No inhibition (<10% inhibition at 60 μM))”. For the same compound, the “inhibition of viability of CCD18Co normal colon cells” value in data set [5] (at 60 μM, 24 h) is below 10%.
Broadly, the Ki is a dissociation constant, usually derived from enzyme kinetics or from competition with a known ligand. As for glaucarubulone glucoside [Gg], the “effect on B[a]P-induced CYP1A2 mRNA expression” value in the data set with CYP1A2 mRNA was “sustained inhibition”. For the same compound, the early apoptosis in the data set on MCF-7 cells [6] was 26.5 ± 9.5%. In addition, the “effect on B[a]P-induced CYP1A1 mRNA expression” value in the data set on CYP1A1 mRNA was “inhibited B[a]P-induced CYP1A1 mRNA expression in a dose-dependent fashion”. Further, the “mode of inhibition of CYP1A1” value on human CYP1A1 (Eadie-Hofstee plots) is listed as “non-competitive”. For the same compound, the IC50 on human CYP1A1 (read-out: IC50 CYP1A1 activity, recombinant human CYP1A1, CEC 0.5 μM) is 6.93 ± 0.31 µM; with MCF-7 cells [7], 3.52 ± 0.918 µM; on human CYP2C19 it was 19.4 ± 1.11 µM; on human CYP3A4, 1.31 ± 0.49 µM; in data set [2] (72 h exposure, Alamar Blue), 0.121 µM. For the same compound, the Ki on human CYP1A1 (read-out: Ki CYP1A1, Eadie-Hofstee plots, non-competitive inhibition) came to 7.1 ± 1.44 µM. Besides, the “effect on B[a]P-mediated induced CYP1A1 protein expression” value in data set [8] is on record as “could not appreciably suppress”. The “IC50 MCF-10A” value in data set [3] is recorded as “NI (No inhibition (<10% inhibition at 60 μM))”. The “IC50 HT29” value in data set [4] is on record as “NI (No inhibition (<10% inhibition at 60 μM))”. The “effect on 1,6-BPQ-mediated increases in ROS production” value in [1] (Gg 1 μM with 1,6-BPQ 2 μM) is reported as “effectively suppressed”. Further, the “inhibition of CYP1B1 activity” value at human CYP1B1 was “moderately inhibited”. In addition, in the data set with CYP1 enzymes mRNA, the “effect on endogenous mRNA expression of CYP1 enzymes” value is reported as “did not appreciably affect”.
